Laboratory results: patent US12428406B2 (PMV Pharmaceuticals, Inc., priority 2019, dated 2025)

The compounds below were run against T1, p53 Y220C (Homo sapiens, UniProt P04637, Y220C) (assay: In vitro DNA binding activity assay (HTRF / TR-FRET): stabilization of p53 Y220C and increase of its DNA binding activity). Conditions: recombinant His-tagged p53 Y220C DNA binding domain (aa 94-312), biotin-labeled consensus DNA, incubated at 27° C. or 29° C. for 60 min.
T1 construct: The recombinant protein was a truncation mutant containing only amino acids 94-312 of p53; made in house; host or cells: E. coli
T1 sequence (P04637 94-312, change not shown): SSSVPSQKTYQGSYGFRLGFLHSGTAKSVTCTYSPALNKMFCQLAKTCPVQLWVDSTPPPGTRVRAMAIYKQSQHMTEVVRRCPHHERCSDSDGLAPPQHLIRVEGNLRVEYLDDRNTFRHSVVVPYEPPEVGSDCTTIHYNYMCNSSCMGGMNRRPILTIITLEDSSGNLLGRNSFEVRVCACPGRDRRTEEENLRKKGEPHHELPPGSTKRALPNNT
Type: biochemical
Summary of the method: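 Test compounds, diluted 3-fold in DMSO from 4.5 mM stocks, were incubated with bacterially expressed His-tagged p53 Y220C at room temperature for 15 min, and after a further step for 20 min. DNA binding was detected by time-resolved FRET between APC and europium labels. SC150 marks the concentration increasing binding by 50%.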

Row | SC150 (concentration of the compound required to increase the DNA binding activity by 50%) | SMILES
1 | + (+ = 0 μM ≤ SC150 < 0.05 μM) | N#CCOc1cc(S(N)(=O)=O)ccc1NCC#Cc1cc2c(NC3CCC(N4CC5(COC5)C4)CC3)cccc2n1CC(F)(F)F [Compound 259A, 3-(cyanomethoxy)-4-{[3-(4-{[(1R,4R)-4-{2-oxa-6-azaspiro[3.3]heptan-6-yl}cyclo-hexyl]amino}-1-(2,2,2-trifluoroethyl)-1H-indol-2-yl)prop-2-yn-1-yl]amino}benzene-1-sulfonamide]
2 | ++++ (++++ = 0.2 μM ≤ SC150 < 1 μM) | COc1cc(S(C)(=O)=O)ccc1NCC#Cc1cc2c(NC(=O)NC3CCN(C4CCOCC4)CC3)cccc2n1CC(F)(F)F [Compound 14A, 3-(2-{3-[(4-methanesulfonyl-2-methoxyphenyl)amino]prop-1-yn-1-yl}-1-(2,2,2-trifluoroethyl)-1H-indol-4-yl)-1-[1-(oxan-4-yl)piperidin-4-yl]urea]
3 | + (+ = 0 μM ≤ SC150 < 0.05 μM) | CS(=O)(=O)c1ccc(NCC#Cc2cc3c(N[C@H]4CC[C@H](N5CC6(COC6)C5)CC4)cccc3n2CC(F)(F)F)c(OC(F)(F)F)c1 [Compound 285A, 2-(3-{[4-methanesulfonyl-2-(trifluoromethoxy)phenyl]amino}prop-1-yn-1-yl)-N-[(1R,4R)-4-{2-oxa-6-azaspiro[3.3]heptan-6-yl}cyclohexyl]-1-(2,2,2-trifluoroethyl)-1H-indol-4-amine]
4 | + (+ = 0 μM ≤ SC150 < 0.05 μM) | COc1cc(S(N)(=O)=O)ccc1NCC#Cc1cc2c(N[C@H]3CC[C@H](N4CC5(CCOCC5)C4)CC3)cccc2n1CC(F)(F)F [Compound 297A, 3-methoxy-4-{[3-(4-{[(1R,4R)-4-{7-oxa-2-azaspiro[3.5]nonan-2-yl}cyclohexyl]amino}-1-(2,2,2-trifluoroethyl)-1H-indol-2-yl)prop-2-yn-1-yl]amino}benzene-1-sulfonamide]
5 | ++ (++ = 0.05 μM ≤ SC150 < 0.1 μM) | COc1cc(C(F)(F)F)ccc1NCC#Cc1cc2c(NC3CCN(C)CC3)cccc2n1CC(F)(F)F [Compound 515A, 2-(3-{[2-methoxy-4-(trifluoromethyl)phenyl]amino}prop-1-yn-1-yl)-N-(1-methylpiperidin-4-yl)-1-(2,2,2-trifluoroethyl)-1H-indol-4-amine]
6 | + (+ = 0 μM ≤ SC150 < 0.05 μM) | CNS(=O)(=O)c1ccc(NCC#Cc2cc3c(NC4CCOCC4)cccc3n2CC(F)(F)F)c(OC)c1 [Compound 1008A]
7 | + (+ = 0 μM ≤ SC150 < 0.05 μM) | COc1cc(S(C)(=O)=O)ccc1NCC#Cc1cc2c(NC3CCN(CCOCCOCCO)CC3)cccc2n1CC(F)(F)F [Compound 544A, 2-[2-(2-{4-[(2-{3-[(4-methanesulfonyl-2-methoxyphenyl)amino]prop-1-yn-1-yl}-1-(2,2,2-trifluoroethyl)-1H-indol-4-yl)amino]piperidin-1-yl}ethoxy)ethoxy]ethan-1-ol]
8 | + (+ = 0 μM ≤ SC150 < 0.05 μM) | CNC(=O)c1ccc(NCC#Cc2cc3c(N[C@H]4CC[C@@H](N5CCC6(CC5)COC6)CC4)cccc3n2CC(F)(F)F)c(OC)c1 [Compound 376A, 3-methoxy-N-methyl-4-{[3-(4-{[(1S,4S)-4-{2-oxa-7-azaspiro[3.5]nonan-7-yl}cyclohexyl]amino}-1-(2,2,2-trifluoroethyl)-1H-indol-2-yl)prop-2-yn-1-yl]amino}benzamide]
9 | + (+ = 0 μM ≤ SC150 < 0.05 μM) | COc1cc(S(N)(=O)=O)ccc1NCC#Cc1cc2c(N[C@H]3CC[C@H](N4CCS(=O)(=O)CC4)CC3)cccc2n1CC(F)(F)F [Compound 372A, 3-methoxy-4-{[3-(4-{[(1R,4R)-4-(1,1-dioxo-1λ^6-thiomorpholin-4-yl)cyclohexyl]amino}-1-(2,2,2-trifluoroethyl)-1H-indol-2-yl)prop-2-yn-1-yl]amino}benzene-1-sulfonamide]

Continued, compound first:

Row | SMILES | SC150 (concentration of the compound required to increase the DNA binding activity by 50%)
10 | COCCN1CC[C@H](Nc2cccc3c2cc(C#CCNc2ccc(C(=O)O)cc2OC)n3CC(F)(F)F)[C@H](F)C1 [Compound 904A] | + (+ = 0 μM ≤ SC150 < 0.05 μM)
11 | COc1cc(C(=O)O)ccc1NCC#Cc1cc2c(N[C@@H]3CCN(C(C)(C)C)C[C@@H]3F)cccc2n1CC(F)(F)F [Compound 1070A, 4-{[3-(4-{[(3S,4R)-1-tert-butyl-3-fluoropiperidin-4-yl]amino}-1-(2,2,2-trifluoroethyl)-1H-indol-2-yl)prop-2-yn-1-yl]amino}-3-methoxybenzoic acid] | + (+ = 0 μM ≤ SC150 < 0.05 μM)
12 | CNC(=O)c1ccc(NCC#Cc2cc3c(NC4CCN(CC(O)COC)CC4)cccc3n2CC(F)(F)F)c(OCCOC)c1 (centres unmarked) [Compound 653A, 4-{[3-(4-{[1-(2-hydroxy-3-methoxypropyl)piperidin-4-yl]amino}-1-(2,2,2-trifluoroethyl)-1H-indol-2-yl)prop-2-yn-1-yl]amino}-3-(2-methoxyethoxy)-N-methylbenzamide] | + (+ = 0 μM ≤ SC150 < 0.05 μM)
13 | CCN1CC[C@@H](Nc2cccc3c2cc(C#CCNc2ccc(C(=O)O)cc2OC)n3CC(F)(F)F)[C@@H](F)C1 [Compound 829A, 4-{[3-(4-{[(3S,4R)-1-ethyl-3-fluoropiperidin-4-yl]amino}-1-(2,2,2-trifluoroethyl)-1H-indol-2-yl)prop-2-yn-1-yl]amino}-3-methoxybenzoic acid] | + (+ = 0 μM ≤ SC150 < 0.05 μM)
14 | CNC(=O)c1ccc(NCC#Cc2cc3c(NC4CCN(C)CC4)cccc3n2CC(F)(F)F)s1 [Compound 524A, N-methyl-5-((3-(4-((1-methylpiperidin-4-yl)amino)-1-(2,2,2-trifluoroethyl)-1H-indol-2-yl)prop-2-yn-1-yl)amino)thiophene-2-carboxamide] | + (+ = 0 μM ≤ SC150 < 0.05 μM)
15 | COc1cc(C(=O)N2CCC(O)CC2)ccc1NCC#Cc1cc2c(N[C@@H]3CCN(C)C[C@@H]3F)cccc2n1CC(F)(F)F [Compound 919A] | + (+ = 0 μM ≤ SC150 < 0.05 μM)
16 | COCC(O)CN1CCC(Nc2cccc3c2cc(C#CCNc2ccc(C(F)(F)F)cc2OC)n3CC(F)(F)F)CC1 (centres unmarked) [Compound 689A, 1-methoxy-3-(4-{[2-(3-{[2-methoxy-4-(trifluoromethyl)phenyl]amino}prop-1-yn-1-yl)-1-(2,2,2-trifluoroethyl)-1H-indol-4-yl]amino}piperidin-1-yl)propan-2-ol] | +++ (+++ = 0.1 μM ≤ SC150 < 0.2 μM)
17 | COCC(O)CN1CCC(Nc2cccc3c2cc(C#CCNc2cc(F)c(C(N)=O)cc2OC)n3CC(F)(F)F)CC1 (centres unmarked) [Compound 683A, 2-fluoro-4-{[3-(4-{[1-(2-hydroxy-3-methoxypropyl)piperidin-4-yl]amino}-1-(2,2,2-trifluoroethyl)-1H-indol-2-yl)prop-2-yn-1-yl]amino}-5-methoxybenzamide] | + (+ = 0 μM ≤ SC150 < 0.05 μM)
